The text below walks through data of US20240026461A1, “BCL10 MUTATIONS AS BIOMARKERS FOR TARGETED THERAPY IN B CELL LYMPHOMAS” (priority 2022, published 2024).

The subject of one experiment is HBL1^E140X. In words: Growth inhibition assay (CellTiter Glo), HBL1 cells expressing BCL10 E140X. Format: cell-based. The conditions noted are these: Homo sapiens, 96 h, read-out: IC50, growth inhibition, MALT1 inhibitors. Here is the method: (§1) DLBCL cell lines were cultured in exponential condition and the cell growth was determined by CellTiter Glo (Promega). 3000-5000 cells were seeded and cultured in each well of 384 well plate for 96 h and treated with compounds every 48 h. Luminescence was read at the endpoint with the Synergy NEO microplate reader (BioTek). The value of compound treated cells was normalized to their vehicle treated controls and then used to calculate IC50 in GraphPad Prism (RRID:SCR_002798).
(§2) Given the distinct functional profiles, CARD11 dependencies, and MALT1 activation effects of the BCL10 CARD and truncation mutants, the inventors designed experiments to evaluate whether, and to what extent, these mutant BCL10 proteins might confer BTK inhibitor resistance. Isogenic ABC-DLBCL cells expressing BCL10WT, BCL10^R58Q and BCL10^E140X proteins were treated with escalating doses of three chemically distinct covalent BTK inhibitors: ibrutinib, acalabrutinib, or zanubrutinib. The cellular proliferation rates of the treated cells were measured using an ATP fluorescence assay after 96 hours of drug exposure.
(§3) Isogenic BCL10^WT, BCL10^R58Q and BCL10^E140X ABC-DLBCLs were exposed to increasing concentrations of each of these compounds for 96 hours.
(In general: ATP-based viability assays read luminescence as a measure of living cells.)

Another experiment has as its system OCI-LY10^R58Q. In words: Growth inhibition assay (CellTiter Glo), OCI-Ly10 cells expressing BCL10 R58Q. Format: cell-based. The conditions noted are these: Homo sapiens, 96 h, read-out: IC50, growth inhibition, MALT1 inhibitors. The protocol: as §1, §2, §3
The test system of the next experiment is OCI-LY10^E140X. In words: Growth inhibition assay (CellTiter Glo), OCI-Ly10 cells expressing BCL10 E140X. Format: cell-based. The conditions noted are these: Homo sapiens, 96 h, read-out: IC50, growth inhibition, MALT1 inhibitors. The protocol: as §1, §2, §3
Experiment [1] concerns isogenic ABC-DLBCL cells expressing BCL10^WT, BCL10^R58Q and BCL10^E140X. In words: Growth inhibition of isogenic ABC-DLBCL cells, response described in words. The conditions noted are these: 96 hours. Format: cell-based, human. The protocol:
as §1, §2, §3

Experiment [2] has as its system IL-6 secretion by OCI-Ly3 ABC-DLBCL cells. In words: IL-6 secretion assay using OCI-Ly3 cells (MSD). The experiment is classed as cell-based. To be noted: Homo sapiens, 24 h, read-out: IC50, IL6 secretion. Here is the method: (§4) FIG. 21A. Chemical structure of JNJ-67690246. FIG. 21B. IC50 values for JNJ-67690246 in biochemical enzymatic and cellular cytokine secretion assays. MALT1 proteolytic IC50: purified recombinant MALT1 was preincubated for 50 min at RT with JNJ-67690246, substrate Ac-LRSR-AMC was then incubated for 4 h. MALT1 proteolytic activity was determined by measuring the increase of AMC fluorescence. […] FIG. 21C. Table for IC50 values of three different MALT1 inhibitors measured in HBL1 and OCI-Ly10 cells expressing WT and mutant BCL10. D-F. MALT1 activity measured in OCI-Ly10 GloSensor reporter cells treated with MALT1 inhibitors. OCI-Ly10 MALT1 GloSensor cells were stably expressing wildtype and mutant BCL10, then treated with MALT1 inhibitors of different range (10-0.3 uM). FIG. 21G-I. NF-κB activity measured in NF-κB-RE-luciferase reporter cell lines treated with MALT1 inhibitors. HBL1 NF-κB reporter cells lines were stably expressing wildtype and mutant BCL10, and then treated with MALT1 inhibitors of different range (10-0.3 uM). NF-xB activity was performed 24 h after treatment. Error bars indicate SEM with 4 biological replicates. p<0.05; “p<0.01; “<0.001; ****p<0.0001; ns, not significant.
(§5) Secretion of the IL-6 and IL-10 cytokines by OCI-Ly3 ABC-DLBCL cells was measured using a Mesoscale assay (MSD). MALT1 inhibition results in a decrease of IL-6/10 secretion. […] Plates were read on a SECTOR imager.

In another experiment the test system is HBL1^WT. In words: Growth inhibition assay (CellTiter Glo), HBL1 cells expressing BCL10 WT. Format: cell-based. To be noted: Homo sapiens, 96 h, read-out: IC50, growth inhibition, MALT1 inhibitors. Here is the method: as §1, §2, §3
The test system of experiment [3] is IL-10 secretion by OCI-Ly3 ABC-DLBCL cells. In words: IL-10 secretion assay using OCI-Ly3 cells (MSD). To be noted: Homo sapiens, 24 h, read-out: IC50, IL10 secretion. The experiment is classed as cell-based. Here is the method:
as §4, §5

Experiment [4] addresses T1, full-length MALT1 protein (Strep-MALT1(1-824)-His) (Homo sapiens, UniProt Q9UDY8).
T1 construct: full-length MALT1 protein (Strep-MALT1(1-824)-His); Strep (N); His (C); made in house; host or cells: baculovirus-infected insect cells
In words: Biochemical evaluation of MALT1 protease activity (Ac-LRSR-AMC cleavage). The conditions noted are these: preincubated 50 min at RT, substrate Ac-LRSR-AMC 4 h; read-out: IC50, MALT1 enzyme. The protocol: FIG. 21A. Chemical structure of JNJ-67690246. FIG. 21B. IC50 values for JNJ-67690246 in biochemical enzymatic and cellular cytokine secretion assays. MALT1 proteolytic IC50: purified recombinant MALT1 was preincubated for 50 min at RT with JNJ-67690246, substrate Ac-LRSR-AMC was then incubated for 4 h. MALT1 proteolytic activity was determined by measuring the increase of AMC fluorescence. […] FIG. 21C. Table for IC50 values of three different MALT1 inhibitors measured in HBL1 and OCI-Ly10 cells expressing WT and mutant BCL10. D-F. MALT1 activity measured in OCI-Ly10 GloSensor reporter cells treated with MALT1 inhibitors. […] FIG. 21G-I. NF-κB activity measured in NF-κB-RE-luciferase reporter cell lines treated with MALT1 inhibitors. […]
MALT1 protease activity was assessed in vitro using full-length MALT1 protein (Strep-MALT1(1-824)-His) purified from baculovirus-infected insect cells. […] Cleavage of AMC from the arginine residue results in an increase in coumarin fluorescence measured at 460 nm (excitation 355 nm). […] Substrate was added and the reaction was then incubated for 4 h at RT, after which fluorescence was measured.
MALT1 protease activity was assessed in vitro using full-length MALT1 protein (Strep-MALT1 (1-824)-His) purified from baculovirus-infected insect cells. […] Cleavage of AMC from the arginine residue results in an increase in coumarin fluorescence measured at 460 nm (excitation 355 nm). […]

Another experiment concerns OCI-LY10^WT. In words: Growth inhibition assay (CellTiter Glo), OCI-Ly10 cells expressing BCL10 WT. To be noted: Homo sapiens, 96 h, read-out: IC50, growth inhibition, MALT1 inhibitors. Format: cell-based. The protocol:
as §1, §2, §3

T1 sequence (Q9UDY8 whole entry): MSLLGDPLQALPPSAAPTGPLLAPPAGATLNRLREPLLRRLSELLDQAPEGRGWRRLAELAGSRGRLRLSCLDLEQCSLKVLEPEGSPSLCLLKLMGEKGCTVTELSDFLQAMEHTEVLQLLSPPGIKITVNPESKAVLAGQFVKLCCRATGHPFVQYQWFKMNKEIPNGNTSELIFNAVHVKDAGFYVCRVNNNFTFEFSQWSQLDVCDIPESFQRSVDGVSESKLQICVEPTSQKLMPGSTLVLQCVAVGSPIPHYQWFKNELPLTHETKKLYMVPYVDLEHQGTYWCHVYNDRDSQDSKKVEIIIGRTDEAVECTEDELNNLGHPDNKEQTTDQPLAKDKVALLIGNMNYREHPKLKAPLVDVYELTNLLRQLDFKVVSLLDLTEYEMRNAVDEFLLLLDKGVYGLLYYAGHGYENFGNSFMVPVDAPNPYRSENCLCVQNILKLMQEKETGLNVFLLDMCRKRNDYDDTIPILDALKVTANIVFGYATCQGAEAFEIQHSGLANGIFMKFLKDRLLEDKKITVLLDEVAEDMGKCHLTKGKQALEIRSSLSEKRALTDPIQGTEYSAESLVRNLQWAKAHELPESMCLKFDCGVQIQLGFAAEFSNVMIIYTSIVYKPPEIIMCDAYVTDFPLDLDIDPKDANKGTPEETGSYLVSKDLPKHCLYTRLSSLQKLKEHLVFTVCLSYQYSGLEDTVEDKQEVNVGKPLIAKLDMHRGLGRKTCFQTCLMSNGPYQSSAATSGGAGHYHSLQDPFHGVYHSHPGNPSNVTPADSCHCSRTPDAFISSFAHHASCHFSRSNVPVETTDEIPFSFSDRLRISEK

Regarding `Cc1nc(-n2nccn2)c(Cl)cc1NC(=O)c1cnn(-c2cccc3c(=O)[nH]ccc23)c1C(F)(F)F` [JNJ-67690246], the IC50 worked out at 150 ± 20 nM in the experiment on HBL1^E140X; 780 ± 200 nM in the experiment with OCI-LY10^R58Q; 270 ± 20 nM with OCI-LY10^E140X; 60 nM in [2]; 1580 ± 500 nM in the experiment on HBL1^WT; 60 nM in experiment [3]. Also, the IC50 amounted to 15 nM in [4] and 320 ± 70 nM in the experiment with OCI-LY10^WT. Also, the “growth response in words” value in experiment [1] (BCL10^R58Q ABC-DLBCL cells) and in [1] (BCL10^WT ABC-DLBCL cells) was “generally sensitive” in each case.

The IC50 is the concentration that gives 50% inhibition.
